Where two headings read alike, the source gives them in different places.
Legend:
cognitive function = settings: age related; cited from earlier work
[1] = target: muscarinic acetylcholine receptors; test: inhibition of specific binding of ^3 H-Oxotremorine-M (^3 H-Oxo) in rat cortex; settings: rat cortical receptors; 1.0 nM radioligand, 25° C., 30 min
From the text: Furthermore, the pharmacological properties of the compounds of the invention can also be illustrated by determining their capability to inhibit the specific binding of ^3 H-Oxotremorine-M (^3 H-Oxo). Birdsdall N. J. M., Hulme E. C., and Burgen A. S. V. (1980). "The Character of Muscarinic Receptors in Different Regions of the Rat Brain". Proc. Roy. Soc. London (Series B) 207,1.
^3 H-Oxo labels muscarinic receptor in the CNS (with a preference for agonist domains of the receptors). Three different sites are labelled by ^3 H-Oxo. […] Using the present experimental conditions only the high and medium affinity sites are determined.
The inhibitory effects of compounds on ^3 H-Oxo binding reflects the affinity for muscarinic acetylcholine receptors.
All preparations are performed at 0-4° C. unless otherwise indicated. Fresh cortex (0.1-1 g) from male Wistar rats (150-250 g) is homogenized for 5-10 s in 10 ml 20 mM Hepes pH: 7.4, with an Ultra-Turrax homogenizer. The homogenizer is rinsed with 10 ml of buffer and the combined suspension centrifuged for 15 min. at 40,000×g. The pellet is washed three times with buffer. In each step the pellet is homogenized as before in 2×10 ml of buffer and centrifuged for 10 min. at 40,000×g.
The final pellet is homogenized in 20 mM Hepes pH: 7.4 (100 ml per g of original tissue) and used for binding assay. Aliquots of 0.5 ml is added 25 μl of test solution and 25 μl of ^3 H-Oxotremorine (1.0 nM, final concentration) mixed and incubated for 30 min. at 25° C. Non-specific binding is determined in triplicate using arecoline (1 μg/ml, final concentration) as the test substance. After incubation samples are added 5 ml of ice-cold buffer and poured directly onto Whatman GF/C glass fiber filters under suction and immediately washed 2 times with 5 ml of ice-cold buffer. The amount of radioactivity on the filters are determined by conventional liquid scintillation counting. Specific binding is total binding minus non specific binding.
Test substances are dissolved in 10 ml water (if necessary heated on a steam-bath for less than 5 min.) at a concentration of 2.2 mg/ml. 25-75% inhibition of specific binding must be obtained before calculation of IC50. The test value will be given as IC50 (the concentration (nM) of the test substance which inhibits the specific binding of ^3 H-Oxo by 50%).
IC50 =(applied test substance concentration)×(Cx /Co
where Co is specific binding in control assays and Cx is the specific binding in the test assay. (The calculations assume normal mass-action kinetics).
Table I illustrates the affinity of the compounds of the present invention for nicotinic and muscarinic receptors as determined by ^3 H-MCC and ^3 H-Oxo binding to rat cortical receptors. […]

[2] = tested on: nicotinic acetylcholine receptors; test: inhibition of specific binding of ^3 H-methylcarbamylcholine (^3 H-MCC) in rat brain tissue; settings: rat cortical receptors; for Oxo/MCC Ratio: IC50 ^3 H-Oxo / IC50 ^3 H-MCC; for IC50: ^3 H-MCC 2 nM, 0° C., 60 min
From the text: The pharmacological properties of the compounds of the invention can be illustrated by determining their capability to inhibit the specific binding of ^3 H-methylcarbamylcholine (^3 H-MCC) (Abood and Grassi, Biochem. Pharmacol., Vol. 35, pp. 4199-4202, (1986)).
^3 H-MCC labels the nicotinic receptors in the CNS. The inhibitory effect on ^3 H-MCC binding reflects the affinity for nicotinic acetylcholine receptors.
Fresh or frozen rat, brain tissue (hippocampus or cortex) was homogenized in assay buffer (50 mM Tris-HCl, pH 7.4, 120 mM NaCl, 5 mM KCl, 2 mM CaCl2, 1 mM MgCl2) and centrifuged for 10 min. at 40.000×g. Pellets were subsequently reconstituted in assay buffer and an appropriate amount of tissue sample was mixed in tubes with ^3 H-methylcarbamylcholine (NEN, NET-951; final concentration 2 nM) and test drug. The tubes were incubated at 0° C. for 60 min. Unbound ligand was separated from bound ligand by vacuum filtration through GF/B filters presoaked in 0.5 % polyethylenimine. Filters were washed three times with 5 ml wash buffer (50 mM Tris-HCl, pH 7.4) and transferred to vials. 4 ml scintillation fluid was added and the radioactivity was measured by scintillation counting. Unspecific binding was measured with 10 μM nicotine.
The IC50 values of the test compounds were determined by nonlinear regression analyses (GraphPad InPlot).
Table I illustrates the affinity of the compounds of the present invention for nicotinic and muscarinic receptors as determined by ^3 H-MCC and ^3 H-Oxo binding to rat cortical receptors. The compounds, however, show selective affinity for nicotinic receptors as compared to muscarinic receptors, i.e OXO/MCC>1.

[3] = target: muscarinic acetylcholine receptors; settings: read-out: affinity of site labelled by ^3 H-Oxo, cited from earlier work
dopaminergic effects = settings: various behavioral models; cited from earlier work
Tourette's syndrome = settings: in vivo; cited from earlier work
attention and memory [4] = settings: healthy humans; cited from earlier work
substantia nigra = settings: chronic nicotine; lesioning; cited from earlier work
prefrontal neurons = settings: cited from earlier work
attention and memory [5] = settings: Alzheimer's disease patients; cited from earlier work
dopamine release = settings: nucleus accumbens compared with striatum; cited from earlier work

In the case of CNC1(C)C2CCC(C2)C1(C)C (centres unmarked) [mecamylamine], the cognitive impairment (cognitive function) is listed as “cause cognitive impairment in an age related way”.
In the case of CCNc1oncc1C1=CCCN(C)C1.O=C(O)C(=O)O [Compound 5, 3-(5-ethylamino-4-isoxazolyl)-1,2,5,6-tetrahydro-1-methylpyridine oxalate], the IC50 [1] is reported as 1400 nM, the “Oxo/MCC Ratio” value [2] is reported as 23 and the IC50 [2] is reported as 62 nM.
With CCCNc1oncc1C1=CCCN(C)C1.O=C(O)C(=O)O [Compound 7, 3-(5-Propylamino-4-isoxazolyl)-1,2,5,6-tetrahydro-1-methylpyridine oxalate] the IC50 [1] was 5200 nM, the “Oxo/MCC Ratio” value [2] was 130 and the IC50 [2] was 40 nM.
For C[N+](C)(C)CC#CCN1CCCC1=O [^3 H-Oxo, ^3 H-Oxotremorine-M], the Kd ([3]; high affinity site) is given as 1.8 nM, the Kd ([3]; medium affinity site) is given as 20 nM and the Kd ([3]; third (lowest affinity) site, not determined under present conditions) is given as 3000 nM.
For CN1CCC=C(c2cnoc2NCc2ccccc2)C1.O=C(O)C(=O)O [Compound 14, 3-(5-Benzylamino-4-isoxazolyl)-1,2,5,6-tetrahydro-1-methylpyridine oxalate], the IC50 [1] was 4000 nM, the “Oxo/MCC Ratio” value [2] was 47 and the IC50 [2] was 85 nM.
For CN1CCCC1c1cccnc1 (centres unmarked) [nicotine], the “potentiation of dopaminergic effects” value (dopaminergic effects) is given as “potentiate dopaminergic effects in various behavioral models”, the “effects in Tourette's syndrome” value (Tourette's syndrome) is given as “beneficial effects in Tourette's syndrome” and the attention and memory (attention and memory [4]) is given as “improved attention and memory in healthy humans”. For the same compound, the “protection against cell loss in the substantia nigra” value (substantia nigra) was “may protect against cell loss in the substantia nigra”, the “reversal of inactivation of prefrontal neurons” value (prefrontal neurons) was “nicotinic reversal of inactivation of prefrontal neurons” and the attention and memory (attention and memory [5]) was “improved attention and memory”. For the same compound, the “stimulation of dopamine release” value (dopamine release) was “stimulates dopamine release in the nucleus accumbens more potently than in striatum”.
With CNc1oncc1C1=CCCN(C)C1.O=C(O)C(=O)O [Compound 3, 3-(5-methylamino-4-isoxazolyl)-1,2,5,6-tetrahydro-1-methylpyridine oxalate] the IC50 [1] was 4400 nM, the “Oxo/MCC Ratio” value [2] was 19 and the IC50 [2] was 230 nM.
